assay: Inhibitory activity against non-nucleoside reverse transcriptase inhibitors (NNRTI) -resistant HIV-1 strain A17 with a Y181C mutation in RT (reverse transcriptase)

With `CCC(NC(=S)Nc1nccs1)c1ccccc1` (stereo not given) [1-(1-Phenyl-propyl)-3-thiazol-2-yl-thiourea] as the compound, how does the IC50 read?
Its IC50 is 2100 nM.

With `S=C(NCCc1cccs1)Nc1ccc(Br)cn1` [1-(5-Bromo-pyridin-2-yl)-3-(2-thiophen-2-yl-ethyl)-thiourea] as the compound, how does the IC50 read?
Its IC50 is 48 nM.

For `Oc1ccc(CCNC(=S)Nc2ccc(Br)cn2)cc1` [1-(5-Bromo-pyridin-2-yl)-3-[2-(4-hydroxy-phenyl)-ethyl]-thiourea], which IC50 is on record?
Its IC50 is 70 nM.

assay: Inhibitory activity against non-nucleoside reverse transcriptase inhibitors (NNRTI) -resistant HIV-1 strain A17 with a Y181C mutation in reverse transcriptase

Which IC50 does the source give for `S=C(NCCc1cccs1)Nc1nccs1` [1-Thiazol-2-yl-3-(2-thiophen-2-yl-ethyl)-thiourea] here?
Its IC50 is over 100000 nM.

assay: Inhibitory activity against non-nucleoside reverse transcriptase inhibitors (NNRTI) -resistant HIV-1 strain A17 with a Y181C mutation in RT (reverse transcriptase); remark: another data set of the same source

For `S=C(NCc1ccco1)Nc1nccs1` [1-Furan-2-ylmethyl-3-thiazol-2-yl-thiourea], which IC50 is on record?
Its IC50 is 2000 nM.

With `S=C(NCC12CC3CC(CC(C3)C1)C2)Nc1nccs1` [1-Adamantan-1-ylmethyl-3-thiazol-2-yl-thiourea] as the compound, how does the IC50 read?
The IC50 was 600 nM.

With `S=C(NCCc1c[nH]c2ccccc12)Nc1nccs1` [1-[2-(1H-Indol-3-yl)-ethyl]-3-thiazol-2-yl-thiourea] as the compound, how does the IC50 read?
The IC50 was 2200 nM.

With `S=C(NCCOc1ccccc1)Nc1nccs1` [1-(2-Phenoxy-ethyl)-3-thiazol-2-yl-thiourea] as the compound, how does the IC50 read?
The IC50 was 4400 nM.

With `S=C(NCCC1=CCCCC1)Nc1nccs1` [1-(2-Cyclohex-1-enyl-ethyl)-3-thiazol-2-yl-thiourea] as the compound, how does the IC50 read?
The IC50 was 900 nM.

Which IC50 does the source give for `Cc1ccc(CCNC(=S)Nc2nccs2)cc1` [1-Thiazol-2-yl-3-(2-p-tolyl-ethyl)-thiourea] here?
The IC50 was 3900 nM.

— BindingDB's records for doi:10.1016/s0960-894x(01)00011-7 (Institute, 2001)
